Consider 16 molecules from paper PMC9181188 (International Journal of Molecular Sciences, 2022).

≈ marks a conversion by molar mass, not a printed value. A value given as a limit tells only on which side of the number the result lay.

For this assay, the system named is M. tuberculosis Spec. 210 (Multidrug-Resistant). Kind of assay: microbe, parasite or virus in culture. Conditions: for MIC: Mycobacterium tuberculosis, 336 h, read-out: MIC M. tuberculosis Spec. 210 (Multidrug-Resistant); for fold higher activity than referential tuberculostatics: multidrug-resistant Spec. 210, versus INH, RMP, SM, EMB. The format is cell-based, Mycobacterium tuberculosis.

Regarding `NNC(=O)c1ccncc1` [Isoniazid (INH), Isoniazid, reference compound], the MIC was found to be 16 µg/mL (≈ 117 µM). The same measure, in the same setting: the value for `CCCCCCCC/C=C\CCCCCCCC(=O)N1CCCC2CN(c3c(F)cc4c(=O)c(C(=O)O)cn(C5CC5)c4c3OC)CC21` (stereo not drawn) [Compound 4m, 1-Cyclopropyl-6-fluoro-8-methoxy-7-{1-(Z)-octadec-9-enoyl-octahydro-pyrrolo[3,4-b]pyridin-6-yl}-4-oxo-1,4-dihydro-quinoline-3-carboxylic acid] was greater than 512 µg/mL; that for `COc1c(N2CC3CCCN(C(=O)/C=C(\C)CCC=C(C)C)C3C2)c(F)cc2c(=O)c(C(=O)O)cn(C3CC3)c12` (stereo not drawn) [Compound 3m, 1-Cyclopropyl-7-{1-(2E)-(3,7-dimethyl-octa-2,6-dienoyl)-octahydro-pyrrolo[3,4-b]pyridin-6-yl}-6-fluoro-8-methoxy-4-oxo-1,4-dihydro-quinoline-3-carboxylic acid] was 128 µg/mL (≈ 232 µM); that for `C/C=C/C(=O)N1CCCC2CN(c3c(F)cc4c(=O)c(C(=O)O)cn(C5CC5)c4c3OC)CC21` (stereo not drawn) [Compound 1m, 7-{1-(E)-But-2-enoyl-octahydro-pyrrolo[3,4-b]pyridin-6-yl}-1-cyclopropyl-6-fluoro-8-methoxy-4-oxo-1,4-dihydro-quinoline-3-carboxylic acid] was 64 µg/mL (≈ 136 µM). For the molecule `CC/C=C\C/C=C\C/C=C\CCCCCCCC(=O)N1CCCC2CN(c3c(F)cc4c(=O)c(C(=O)O)cn(C5CC5)c4c3OC)CC21` (stereo not drawn) [Compound 6m, 1-Cyclopropyl-6-fluoro-8-methoxy-7-{1-(9Z,12Z,15Z)-octadeca-9,12,15-trienoyl-octahydro-pyrrolo[3,4-b]pyridin-6-yl}-4-oxo-1,4-dihydro-quinoline-3-carboxylic acid], the MIC is 256 µg/mL (≈ 387 µM). The same measure, in the same setting: then `CCCCCCCC/C=C\CCCCCCCCCCCC(=O)N1CCCC2CN(c3c(F)cc4c(=O)c(C(=O)O)cn(C5CC5)c4c3OC)CC21` (stereo not drawn) [Compound 7m, 1-Cyclopropyl-7-{1-(Z)-docos-13-enoyl-octahydro-pyrrolo[3,4-b]pyridin-6-yl}-6-fluoro-8-methoxy-4-oxo-1,4-dihydro-quinoline-3-carboxylic acid], with greater than 512 µg/mL; and `CCCCC/C=C\C/C=C\CCCCCCCC(=O)N1CCCC2CN(c3c(F)cc4c(=O)c(C(=O)O)cn(C5CC5)c4c3OC)CC21` (stereo not drawn) [Compound 11m, 1-Cyclopropyl-6-fluoro-8-methoxy-7-{1-(9Z,12Z)-octadeca-9,12-dienoyl-octahydropyrrolo-[3,4-b]pyridin-6-yl)-4-oxo-1,4-dihydro-quinoline-3-carboxylic acid], with 256 µg/mL (≈ 386 µM).

In the case of `CC[C@@H](CO)NCCN[C@@H](CC)CO` [Ethambutol (EMB), Ethambutol, reference compound], the MIC turned out to be 32 µg/mL (≈ 157 µM). Regarding `CCCCCCCC(=O)N1CCCC2CN(c3c(F)cc4c(=O)c(C(=O)O)cn(C5CC5)c4c3OC)CC21` (stereo not drawn) [Compound 15m, 1-Cyclopropyl-6-fluoro-8-methoxy-7-(1-octanoyl-octahydro-pyrrolo[3,4-b]pyridin-6-yl)-4-oxo-1,4-dihydro-quinoline-3-carboxylic acid], the MIC was found to be 128 µg/mL (≈ 243 µM). `CCCCCCCC/C=C/CCCCCCCC(=O)N1CCCC2CN(c3c(F)cc4c(=O)c(C(=O)O)cn(C5CC5)c4c3OC)CC21` (stereo not drawn) [Compound 5m, 1-Cyclopropyl-6-fluoro-8-methoxy-7-{1-(E)-octadec-9-enoyl-octahydro-pyrrolo[3,4-b]pyridin-6-yl}-4-oxo-1,4-dihydro-quinoline-3-carboxylic acid]: the MIC came to 256 µg/mL (≈ 384 µM).

As for `CC/C=C\C/C=C\C/C=C\C/C=C\C/C=C\C/C=C\CCC(=O)N1CCCC2CN(c3c(F)cc4c(=O)c(C(=O)O)cn(C5CC5)c4c3OC)CC21` (stereo not drawn) [Compound 8m, 1-Cyclopropyl-7-{1-(4Z,7Z,10Z,13Z,16Z,19Z)-docosa-4,7,10,13,16,19-hexaenoyl-octahydro-pyrrolo[3,4-b]pyridin-6-yl}-6-fluoro-8-methoxy-4-oxo-1,4-dihydro-quinoline-3-carboxylic acid], the MIC turned out to be 2 µg/mL (≈ 2.81 µM) and the “fold higher activity than referential tuberculostatics” value is listed as 8–16 fold. With `CCCCCCCCCCCCCCCC(=O)N1CCC[C@H]2CN(c3c(F)cc4c(=O)c(C(=O)O)cn(C5CC5)c4c3OC)C[C@H]21` [Compound 9m, 1-Cyclopropyl-6-fluoro-7-(1-hexadecanoyl-octahydro-pyrrolo[3,4-b]pyridin-6-yl)-8-methox-4-oxo-1,4-dihydro-quinoline-3-carboxylic acid], the MIC was greater than 512 µg/mL. Take `CCCCCCCCCCCCCCCCCC(=O)N1CCCC2CN(c3c(F)cc4c(=O)c(C(=O)O)cn(C5CC5)c4c3OC)CC21` (stereo not drawn) [Compound 16m, 1-Cyclopropyl-6-fluoro-8-methoxy-7-(1-octadecanoyl-octahydro-pyrrolo[3,4-b]pyridin-6-yl)-4-oxo-1,4-dihydro-quinoline-3-carboxylic acid]: the MIC is greater than 512 µg/mL. Consider `CCCCC/C=C\C/C=C\C/C=C\C/C=C\CCCC(=O)N1CCCC2CN(c3c(F)cc4c(=O)c(C(=O)O)cn(C5CC5)c4c3OC)CC21` (stereo not drawn) [Compound 13m, 1-Cyclopropyl-6-fluoro-7-{1-(5Z,8Z,11Z,14Z)-icosa-5,8,11,14-tetraenoyl-octahydro-pyrrolo[3,4-b]pyridin-6-yl}-8-methoxy-4-oxo-1,4-dihydro-quinoline-3-carboxylic acid], for which the MIC came out at 2 µg/mL (≈ 2.91 µM) and the “fold higher activity than referential tuberculostatics” value is listed as 8–16 fold. For the molecule `CO[C@H]1/C=C/O[C@@]2(C)Oc3c(C)c(O)c4c(O)c(c(/C=N/N5CCN(C)CC5)c(O)c4c3C2=O)NC(=O)/C(C)=C\C=C\[C@H](C)[C@H](O)[C@@H](C)[C@@H](O)[C@@H](C)[C@H](OC(C)=O)[C@@H]1C` [Rifampicin (RMP), Rifampicin, reference compound], the MIC stood at 32 µg/mL (≈ 38.9 µM).

`[H]/N=C(/N)N[C@H]1[C@H](O)[C@@H](O)[C@H](O[C@@H]2O[C@@H](C)[C@](O)(C=O)[C@H]2O[C@@H]2O[C@@H](CO)[C@H](O)[C@@H](O)[C@@H]2NC)[C@@H](N/C(N)=N\[H])[C@@H]1O` [Streptomycin (SM), Streptomycin, reference compound]: the MIC stood at 16 µg/mL (≈ 27.5 µM).
